Experimental data reported in US9504690B2, “Tetracyclic xanthene derivatives and methods of use thereof for the treatment of viral diseases” (Merck Sharp & Dohme Corp., priority 2011, dated 2016).

How the values were obtained:
HCV replicon 1b Y93H = assay: Cell-based HCV replicon assay, 1b Y93H; conditions: Hepatitis C virus, 72 h, read-out: Replicon EC50 1b Y93H
Protocol: (§1) To measure cell-based anti-HCV activity of selected compounds of the present invention, replicon cells were seeded at 5000 cells/well in 96-well collagen I-coated Nunc plates in the presence of the test compound. Various concentrations of test compound, typically in 10 serial 2-fold dilutions, were added to the assay mixture, with the starting concentration ranging from 250 μM to 1 μM. The final concentration of DMSO was 0.5%, fetal bovine serum was 5%, in the assay media. Cells were harvested on day 3 by the addition of 1× cell lysis buffer (Ambion cat #8721). The replicon RNA level was measured using real time PCR (Taqman assay). The amplicon was located in 5B. The PCR primers were: 5B.2F, ATGGACAGGCGCCCTGA (SEQ. ID. NO. 1); 5B.2R, […] (SEQ. ID. NO. 2); the probe sequence was FAM-labeled CACGCCATGCGCTGCGG (SEQ. ID. NO. 3). GAPDH RNA was used as endogenous control and was amplified in the same reaction as NS5B (multiplex PCR) using primers and VIC-labeled probe recommended by the manufacturer (PE Applied Biosystem). The real-time RT-PCR reactions were run on ABI PRISM 7900HT Sequence Detection System using the following program: 48° C. for 30 minutes, 95° C. for 10 minutes, 40 cycles of 95° C. for 15 sec, 60° C. for 1 minutes. The ΔCT values (CT5B-CTGAPDH) were plotted against the concentration of test compound and fitted to the sigmoid dose-response model using XLfit4 (MDL). […] Alternatively, to quantitate the absolute amount of replicon RNA, a standard curve was established by including serially diluted T7 transcripts of replicon RNA in the Taqman assay. All Taqman reagents were from PE Applied Biosystems. Such an assay procedure was described in detail in e.g. Malcolm et al., Antimicrobial Agents and Chemotherapy 50: 1013-1020 (2006).
(§2) HCV replicon assay data was calculated for selected compounds of the present invention using this method and is provided in the table below.

HCV replicon 4a WT = assay: Cell-based HCV replicon assay, 4a WT; conditions: Hepatitis C virus, 72 h; replicon cells, harvested day 3, replicon RNA by real time PCR (Taqman)
Protocol: as §1, §2

HCV replicon 2b WT = assay: Cell-based HCV replicon assay, 2b WT; conditions: Hepatitis C virus, 72 h; replicon cells, harvested day 3, replicon RNA by real time PCR (Taqman)
Protocol: as §1, §2

HCV replicon 1a Y93H = assay: Cell-based HCV replicon assay, 1a Y93H; conditions: Hepatitis C virus, 72 h, read-out: Replicon EC50 1a Y93H
Protocol: as §1, §2

HCV replicon 1b WT = assay: Cell-based HCV replicon assay, 1b WT; conditions: Hepatitis C virus, 72 h; replicon cells, harvested day 3, replicon RNA by real time PCR (Taqman)
Protocol: as §1, §2

HCV replicon 2a WT = assay: Cell-based HCV replicon assay, 2a WT; conditions: Hepatitis C virus, 72 h; replicon cells, harvested day 3, replicon RNA by real time PCR (Taqman)
Protocol: as §1, §2

HCV replicon 1a WT = assay: Cell-based HCV replicon assay, 1a WT; conditions: Hepatitis C virus, 72 h; replicon cells, harvested day 3, replicon RNA by real time PCR (Taqman)
Protocol: as §1, §2

HCV replicon 3a WT = assay: Cell-based HCV replicon assay, 3a WT; conditions: Hepatitis C virus, 72 h; replicon cells, harvested day 3, replicon RNA by real time PCR (Taqman)
Protocol: as §1, §2

| Structure (SMILES) | EC50 (HCV replicon 1b Y93H) | EC50 (HCV replicon 4a WT) | EC50 (HCV replicon 2b WT) | EC50 (HCV replicon 1a Y93H) | EC50 (HCV replicon 1b WT) | EC50 (HCV replicon 2a WT) | EC50 (HCV replicon 1a WT) | EC50 (HCV replicon 3a WT) |
| --- | --- | --- | --- | --- | --- | --- | --- | --- |
| COC(=O)N[C@H](C(=O)N1CCC[C@H]1c1ncc(-c2cc3c4c(c2)Oc2ccc(-c5cnc([C@@H]6CCCN6C(=O)[C@@H](NC(=O)OC)C(C)C)[nH]5)cc2N4CCO3)[nH]1)C(C)C [Compound 13, Methyl [(2S)-1-{(2S)-2-[5-(5-{2-[(2S)-1-{(2S)-2-[(methoxycarbonyl)amino]-3-methylbutanoyl}pyrrolidin-2-yl]-1H-imidazol-5-yl}-1,2-dihydro[1,4]oxazino[2,3,4-kl]phenoxazin-10-yl)-1H-imidazol-2-yl]pyrrolidin-1-yl}-3-methyl-1-oxobutan-2-yl]carbamate] | 19 nM | 0.48 nM | 19.3 nM | 143 nM | 5 pM | 10 pM | 0.002 nM | 1.63 nM |
| COC(=O)N[C@H](C(=O)N1CCC[C@H]1c1ncc(-c2cc3c4c(c2)Oc2ccc(-c5cnc([C@@H]6CCCN6C(=O)[C@@H](NC(=O)OC)C(C)C)[nH]5)cc2N4CC3)[nH]1)C(C)C [Compound 6, Methyl [(2S)-1-{(2S)-2-[5-(4-{2-[(2S)-1-{(2S)-2-[(methoxycarbonyl)amino]-3-methylbutanoyl}pyrrolidin-2-yl]-1H-imidazol-5-yl}-1,2-dihydropyrrolo[3,2,1-kl]phenoxazin-9-yl)-1H-imidazol-2-yl]pyrrolidin-1-yl}-3-methyl-1-oxobutan-2-yl]carbamate] | 0.303 nM | 0.22 nM | 18.9 nM | 43.5 nM | 5 pM | 11 pM | 0.037 nM | 0.22 nM |
| COC(=O)N[C@H](C(=O)N1CCC[C@H]1c1ncc(-c2ccc3c(c2)Oc2ccc(-c4cnc([C@@H]5CCCN5C(=O)[C@@H](NC(=O)OC)C(C)C)[nH]4)c4c2N3CC4)[nH]1)C(C)C [Compound 17] | 19.6 nM | 0.026 nM | 19.6 nM | 19.5 nM | 1 pM | 7 pM | 0.006 nM | 0.067 nM |
| COC(=O)N[C@H](C(=O)N1CCC[C@H]1c1ncc(-c2ccc3c(c2)Oc2ccc(-c4cnc([C@@H]5CCCN5C(=O)[C@@H](NC(=O)OC)C(C)C)[nH]4)c4occ-3c24)[nH]1)C(C)C [Compound 14, Methyl [(2S)-1-{(2S)-2-[5-(3-{2-[(2S)-1-{(2S)-2-[(methoxycarbonyl)amino]-3-methylbutanoyl}pyrrolidin-2-yl]-1H-imidazol-5-yl}furo[2,3,4-kl]xanthen-8-yl)-1H-imidazol-2-yl]pyrrolidin-1-yl}-3-methyl-1-oxobutan-2-yl]carbamate] | 0.278 nM | 0.056 nM | 34.5 nM | 31.5 nM | 2 pM | 2 pM | 0.011 nM | 0.161 nM |
| COC(=O)N[C@H](C(=O)N1CCC[C@H]1c1ncc(-c2ccc3c(c2)-n2ccc4cc(-c5cnc([C@@H]6CCCN6C(=O)[C@@H](NC(=O)OC)C(C)C)[nH]5)cc(c42)O3)[nH]1)C(C)C [Compound 16] | 9.1 nM | 1.31 nM | 9.07 nM | 50.9 nM | 9 pM | 104 pM | 0.1 nM | 9.61 nM |
| COC(=O)N[C@H](C(=O)N1CCC[C@H]1c1ncc(-c2ccc3c(c2)Oc2ccc(-c4cnc([C@@H]5CCCN5C(=O)[C@@H](NC(=O)OC)C(C)C)[nH]4)c4ccn-3c24)[nH]1)C(C)C [Compound 1, Methyl [(2S)-1-{(2S)-2-[5-(3-{2-[(2S)-1-{(2S)-2-[(methoxycarbonyl)amino]-3-methyl-butanoyl}pyrrolidin-2-yl]-1H-imidazol-5-yl}pyrrolo[3,2,1-kl]phenoxazin-8-yl)-1H-imidazol-2-yl]pyrrolidin-1-yl}-3-methyl-1-oxobutan-2-yl]carbamate] | 0.56 nM | 0.044 nM | – | 41.7 nM | 9 pM | 4 pM | 0.0107 nM | 0.323 nM |
